# Measured values reported in ChEMBL document CHEMBL4507269, “Data for DCP probe BAY-386” (2021).
# Key:
# hERG (KCNH2) = hERG (KCNH2) (Homo sapiens, UniProt Q12809); assay: Inhibition of Potassium Channel hERG at 10 µM in the Eurofins-Panlabs radioligand binding assay (Eurofins_assay_265900); set-up: ligand concentration 1.5 nM, non-specific ligand with concentration Astemizole, incubation time 60 min, incubation temperature 25 °C; settings: HEK-293 cells that express human recombinant hERG, probe [3H] Astemizole, compound concentration 10 uM
# [1] = biological target: Histamine H2 receptor (Homo sapiens) (UniProt P25021); settings: Compound concentration 10.0 uM
# [2] = biological target: Mitogen-activated protein kinase kinase kinase 10 (Homo sapiens) (UniProt Q02779); settings: Compound concentration 1000.0 nM
# Sequence of Mitogen-activated protein kinase kinase kinase 10 (Homo sapiens) (Q02779 whole entry, looked up): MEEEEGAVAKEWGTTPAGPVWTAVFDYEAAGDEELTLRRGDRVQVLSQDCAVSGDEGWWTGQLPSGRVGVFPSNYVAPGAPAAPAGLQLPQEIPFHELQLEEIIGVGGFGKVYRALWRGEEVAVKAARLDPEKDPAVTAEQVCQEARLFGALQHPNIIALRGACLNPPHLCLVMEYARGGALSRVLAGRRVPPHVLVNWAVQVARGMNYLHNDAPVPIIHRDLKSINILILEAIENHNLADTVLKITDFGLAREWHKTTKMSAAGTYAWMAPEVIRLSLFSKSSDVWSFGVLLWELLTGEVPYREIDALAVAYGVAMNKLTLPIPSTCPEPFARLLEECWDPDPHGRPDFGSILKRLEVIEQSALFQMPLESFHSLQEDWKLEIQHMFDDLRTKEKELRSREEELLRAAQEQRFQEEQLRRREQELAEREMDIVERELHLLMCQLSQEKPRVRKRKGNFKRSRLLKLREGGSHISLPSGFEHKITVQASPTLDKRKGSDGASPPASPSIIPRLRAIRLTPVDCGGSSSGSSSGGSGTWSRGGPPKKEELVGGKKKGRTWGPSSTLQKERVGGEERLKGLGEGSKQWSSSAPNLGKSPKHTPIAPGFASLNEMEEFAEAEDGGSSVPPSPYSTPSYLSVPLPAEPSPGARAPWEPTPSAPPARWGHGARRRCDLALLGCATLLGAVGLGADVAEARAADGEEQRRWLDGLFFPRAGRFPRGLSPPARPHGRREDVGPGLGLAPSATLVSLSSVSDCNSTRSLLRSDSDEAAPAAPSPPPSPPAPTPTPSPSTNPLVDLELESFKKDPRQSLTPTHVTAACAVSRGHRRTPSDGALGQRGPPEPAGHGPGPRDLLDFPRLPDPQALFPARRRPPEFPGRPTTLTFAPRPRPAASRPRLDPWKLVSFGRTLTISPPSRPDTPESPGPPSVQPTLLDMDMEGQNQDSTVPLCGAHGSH
# [3] = biological target: Adenosine receptor A2a (Homo sapiens) (UniProt P29274); settings: Compound concentration 10.0 uM
# [4] = biological target: Muscarinic acetylcholine receptor M3 (Homo sapiens) (UniProt P20309); settings: Compound concentration 10.0 uM
# [5] = biological target: Mitogen-activated protein kinase kinase kinase 9 (Homo sapiens) (UniProt P80192); settings: Compound concentration 1000.0 nM
# [6] = biological target: Vascular endothelial growth factor receptor 3 (Homo sapiens) (UniProt P35916); settings: Compound concentration 1000.0 nM
# [7] = biological target: Fibroblast growth factor receptor 4 (Homo sapiens) (UniProt P22455); settings: Compound concentration 1000.0 nM
# Sequence of Fibroblast growth factor receptor 4 (Homo sapiens) (P22455 22-802 limits assumed): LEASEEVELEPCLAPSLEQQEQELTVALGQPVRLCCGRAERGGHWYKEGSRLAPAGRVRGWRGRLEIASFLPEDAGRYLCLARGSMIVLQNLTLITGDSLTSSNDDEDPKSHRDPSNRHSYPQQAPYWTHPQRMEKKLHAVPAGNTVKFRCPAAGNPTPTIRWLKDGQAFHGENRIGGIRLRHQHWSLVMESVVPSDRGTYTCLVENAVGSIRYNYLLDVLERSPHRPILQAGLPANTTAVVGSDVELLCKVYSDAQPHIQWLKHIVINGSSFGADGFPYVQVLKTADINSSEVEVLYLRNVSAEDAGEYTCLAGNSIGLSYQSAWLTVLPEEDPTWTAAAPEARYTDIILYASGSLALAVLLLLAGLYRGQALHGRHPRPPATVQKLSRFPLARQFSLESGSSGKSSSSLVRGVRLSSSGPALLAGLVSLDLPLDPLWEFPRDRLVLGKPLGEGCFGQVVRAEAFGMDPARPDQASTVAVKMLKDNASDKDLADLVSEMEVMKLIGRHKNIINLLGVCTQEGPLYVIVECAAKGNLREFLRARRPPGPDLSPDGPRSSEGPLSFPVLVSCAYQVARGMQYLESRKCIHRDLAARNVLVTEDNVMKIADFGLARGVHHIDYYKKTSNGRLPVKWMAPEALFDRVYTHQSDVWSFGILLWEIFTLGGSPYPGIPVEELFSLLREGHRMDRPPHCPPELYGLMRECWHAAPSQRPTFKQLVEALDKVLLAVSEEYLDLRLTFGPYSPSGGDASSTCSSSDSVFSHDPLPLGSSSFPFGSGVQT
# [8] = biological target: Serine/threonine-protein kinase 38-like (Homo sapiens) (UniProt Q9Y2H1); settings: Compound concentration 1000.0 nM
# Sequence of Serine/threonine-protein kinase 38-like (Homo sapiens) (Q9Y2H1 2-464 limits assumed): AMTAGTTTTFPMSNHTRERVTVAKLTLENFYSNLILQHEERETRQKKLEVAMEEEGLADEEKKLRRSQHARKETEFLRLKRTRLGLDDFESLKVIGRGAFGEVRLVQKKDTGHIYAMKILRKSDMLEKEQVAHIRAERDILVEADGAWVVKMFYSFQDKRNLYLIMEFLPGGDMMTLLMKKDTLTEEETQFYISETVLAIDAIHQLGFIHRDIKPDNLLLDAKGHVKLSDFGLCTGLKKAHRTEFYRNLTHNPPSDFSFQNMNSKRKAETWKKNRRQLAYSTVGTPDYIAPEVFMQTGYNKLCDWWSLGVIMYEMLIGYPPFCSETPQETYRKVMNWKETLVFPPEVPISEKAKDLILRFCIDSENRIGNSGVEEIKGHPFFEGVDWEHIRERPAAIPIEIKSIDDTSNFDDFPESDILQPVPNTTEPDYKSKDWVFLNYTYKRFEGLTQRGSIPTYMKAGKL
# [9] = biological target: Histamine H1 receptor (Homo sapiens) (UniProt P35367); settings: Compound concentration 10.0 uM
# [10] = biological target: Mitogen-activated protein kinase kinase kinase 5 (Homo sapiens) (UniProt Q99683); settings: Compound concentration 1000.0 nM
# Sequence of Mitogen-activated protein kinase kinase kinase 5 (Homo sapiens) (Q99683 whole entry): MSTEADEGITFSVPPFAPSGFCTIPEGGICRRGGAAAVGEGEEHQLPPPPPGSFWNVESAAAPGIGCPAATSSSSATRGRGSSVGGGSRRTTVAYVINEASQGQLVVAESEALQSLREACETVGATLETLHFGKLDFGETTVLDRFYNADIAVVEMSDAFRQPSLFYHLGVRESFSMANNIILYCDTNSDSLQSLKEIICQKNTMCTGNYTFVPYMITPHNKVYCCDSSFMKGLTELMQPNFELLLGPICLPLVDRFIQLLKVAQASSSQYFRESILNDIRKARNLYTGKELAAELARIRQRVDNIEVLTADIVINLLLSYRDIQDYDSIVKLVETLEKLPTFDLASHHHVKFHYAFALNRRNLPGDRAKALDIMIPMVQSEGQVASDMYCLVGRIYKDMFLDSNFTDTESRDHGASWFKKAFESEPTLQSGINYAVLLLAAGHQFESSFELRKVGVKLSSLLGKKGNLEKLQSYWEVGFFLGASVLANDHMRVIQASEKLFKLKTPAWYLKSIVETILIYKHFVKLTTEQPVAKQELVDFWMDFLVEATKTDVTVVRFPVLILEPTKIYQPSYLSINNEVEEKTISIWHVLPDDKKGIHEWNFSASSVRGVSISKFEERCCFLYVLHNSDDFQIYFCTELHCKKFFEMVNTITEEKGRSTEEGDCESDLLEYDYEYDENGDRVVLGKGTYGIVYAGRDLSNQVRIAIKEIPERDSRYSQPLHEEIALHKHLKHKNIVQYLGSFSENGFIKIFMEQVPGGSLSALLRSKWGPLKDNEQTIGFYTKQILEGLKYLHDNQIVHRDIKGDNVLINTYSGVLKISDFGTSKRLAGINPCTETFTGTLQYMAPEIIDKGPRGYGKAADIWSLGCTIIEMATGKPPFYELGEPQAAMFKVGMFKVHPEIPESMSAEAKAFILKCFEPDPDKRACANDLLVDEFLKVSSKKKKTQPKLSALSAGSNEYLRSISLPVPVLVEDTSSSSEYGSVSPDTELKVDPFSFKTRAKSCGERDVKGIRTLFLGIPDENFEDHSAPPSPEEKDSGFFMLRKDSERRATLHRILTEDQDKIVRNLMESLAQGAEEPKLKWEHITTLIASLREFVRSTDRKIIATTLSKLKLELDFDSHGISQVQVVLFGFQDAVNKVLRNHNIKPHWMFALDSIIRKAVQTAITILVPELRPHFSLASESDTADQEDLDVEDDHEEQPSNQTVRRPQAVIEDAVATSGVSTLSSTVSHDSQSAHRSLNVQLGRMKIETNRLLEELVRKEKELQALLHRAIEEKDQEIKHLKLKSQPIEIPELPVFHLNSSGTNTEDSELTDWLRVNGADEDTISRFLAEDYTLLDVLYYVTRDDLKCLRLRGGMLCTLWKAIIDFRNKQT
# [11] = biological target: T1, 5-hydroxytryptamine receptor 1A (Homo sapiens) (UniProt P08908); settings: Compound concentration 10.0 uM
# T1 sequence (whole entry): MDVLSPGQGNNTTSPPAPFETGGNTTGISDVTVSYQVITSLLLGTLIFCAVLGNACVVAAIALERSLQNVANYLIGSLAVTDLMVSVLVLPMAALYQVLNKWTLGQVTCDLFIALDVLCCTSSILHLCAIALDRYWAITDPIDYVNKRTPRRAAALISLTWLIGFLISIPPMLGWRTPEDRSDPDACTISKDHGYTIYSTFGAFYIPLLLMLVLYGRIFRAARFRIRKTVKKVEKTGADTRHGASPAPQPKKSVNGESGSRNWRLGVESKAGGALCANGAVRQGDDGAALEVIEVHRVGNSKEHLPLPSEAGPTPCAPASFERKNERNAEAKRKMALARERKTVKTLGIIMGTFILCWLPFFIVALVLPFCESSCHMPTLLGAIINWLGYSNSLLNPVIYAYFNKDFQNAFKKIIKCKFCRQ
# [12] = biological target: Cannabinoid receptor 1 (Homo sapiens) (UniProt P21554); settings: Compound concentration 10.0 uM
# [13] = biological target: Beta-2 adrenergic receptor (Homo sapiens) (UniProt P07550); settings: Compound concentration 10.0 uM
# [14] = biological target: Prostaglandin E2 receptor EP4 subtype (Homo sapiens) (UniProt P35408); assay: Inhibition of Prostanoid EP4 at 10 µM in the Eurofins-Panlabs radioligand binding assay (Eurofins_assay_268420); set-up: ligand concentration 1 nM; settings: Compound concentration 10.0 uM
# [15] = biological target: Endothelin receptor type B (Homo sapiens) (UniProt P24530); settings: Compound concentration 10.0 uM
# [16] = biological target: D(3) dopamine receptor (Homo sapiens) (UniProt P35462); settings: Compound concentration 10.0 uM
# [17] = biological target: Estrogen receptor (Homo sapiens) (UniProt P03372); settings: Compound concentration 10.0 uM
# Rattus norvegicus [18] = species on record: Rattus norvegicus; assay: Inhibition of Rolipram at 10 µM in the Eurofins-Panlabs radioligand binding assay (Eurofins_assay_268811); assay type: protein assay; set-up: ligand concentration 1.8 nM; settings: Compound concentration 10.0 uM
# [19] = biological target: Phosphatidylinositol 5-phosphate 4-kinase type-2 beta (Homo sapiens) (UniProt P78356); settings: Compound concentration 1000.0 nM
# Sequence of Phosphatidylinositol 5-phosphate 4-kinase type-2 beta (Homo sapiens) (P78356 whole entry): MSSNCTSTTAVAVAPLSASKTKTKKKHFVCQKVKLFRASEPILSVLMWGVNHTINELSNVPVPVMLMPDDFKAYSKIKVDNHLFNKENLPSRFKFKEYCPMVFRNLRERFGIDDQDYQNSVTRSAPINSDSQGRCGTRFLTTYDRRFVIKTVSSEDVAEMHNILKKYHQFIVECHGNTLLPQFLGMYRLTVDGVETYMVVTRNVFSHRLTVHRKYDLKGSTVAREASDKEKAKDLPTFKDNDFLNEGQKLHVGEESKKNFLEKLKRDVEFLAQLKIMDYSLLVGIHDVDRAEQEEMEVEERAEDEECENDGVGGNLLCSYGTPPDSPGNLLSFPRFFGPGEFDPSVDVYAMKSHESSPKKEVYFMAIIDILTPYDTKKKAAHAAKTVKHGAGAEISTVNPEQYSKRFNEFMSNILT
# [20] = biological target: Sigma non-opioid intracellular receptor 1 (Homo sapiens) (UniProt Q99720); settings: Compound concentration 10.0 uM
# Rattus norvegicus [21] = species on record: Rattus norvegicus; settings: Compound concentration 10.0 uM
# Platelet = assay: Inhibition of platelet aggregation (human plasma, TRAP-6) (IC90)
# [22] = biological target: D(2) dopamine receptor (Homo sapiens) (UniProt P14416); settings: Compound concentration 10.0 uM
# [23] = biological target: D(1A) dopamine receptor (Homo sapiens) (UniProt P21728); settings: Compound concentration 10.0 uM
# [24] = biological target: T2, Alpha-1D adrenergic receptor (Homo sapiens) (UniProt P25100); assay: Inhibition of Adrenergic alpha1D at 10 µM in the Eurofins-Panlabs radioligand binding assay (Eurofins_assay_203400); settings: Compound concentration 10.0 uM
# T2 sequence (whole entry): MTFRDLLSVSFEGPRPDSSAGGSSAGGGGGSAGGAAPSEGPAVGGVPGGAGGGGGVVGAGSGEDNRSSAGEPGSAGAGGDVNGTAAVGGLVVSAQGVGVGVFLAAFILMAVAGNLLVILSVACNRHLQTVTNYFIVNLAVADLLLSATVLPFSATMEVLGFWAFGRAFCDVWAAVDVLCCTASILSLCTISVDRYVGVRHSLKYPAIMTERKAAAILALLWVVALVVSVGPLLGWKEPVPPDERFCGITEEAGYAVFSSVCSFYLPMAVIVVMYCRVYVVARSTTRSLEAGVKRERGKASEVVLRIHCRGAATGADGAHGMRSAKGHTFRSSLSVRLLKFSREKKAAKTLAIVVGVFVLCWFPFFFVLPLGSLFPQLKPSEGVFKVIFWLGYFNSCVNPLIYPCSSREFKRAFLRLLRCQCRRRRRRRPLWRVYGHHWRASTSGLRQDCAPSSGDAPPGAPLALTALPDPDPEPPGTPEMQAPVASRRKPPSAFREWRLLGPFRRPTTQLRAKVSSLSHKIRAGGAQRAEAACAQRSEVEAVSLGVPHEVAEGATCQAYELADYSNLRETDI
# [25] = biological target: Kappa-type opioid receptor (Homo sapiens) (UniProt P41145); settings: Compound concentration 10.0 uM
# [26] = biological target: Serine/threonine-protein kinase RIO3 (Homo sapiens) (UniProt O14730); settings: Compound concentration 1000.0 nM
# Sequence of Serine/threonine-protein kinase RIO3 (Homo sapiens) (O14730 whole entry): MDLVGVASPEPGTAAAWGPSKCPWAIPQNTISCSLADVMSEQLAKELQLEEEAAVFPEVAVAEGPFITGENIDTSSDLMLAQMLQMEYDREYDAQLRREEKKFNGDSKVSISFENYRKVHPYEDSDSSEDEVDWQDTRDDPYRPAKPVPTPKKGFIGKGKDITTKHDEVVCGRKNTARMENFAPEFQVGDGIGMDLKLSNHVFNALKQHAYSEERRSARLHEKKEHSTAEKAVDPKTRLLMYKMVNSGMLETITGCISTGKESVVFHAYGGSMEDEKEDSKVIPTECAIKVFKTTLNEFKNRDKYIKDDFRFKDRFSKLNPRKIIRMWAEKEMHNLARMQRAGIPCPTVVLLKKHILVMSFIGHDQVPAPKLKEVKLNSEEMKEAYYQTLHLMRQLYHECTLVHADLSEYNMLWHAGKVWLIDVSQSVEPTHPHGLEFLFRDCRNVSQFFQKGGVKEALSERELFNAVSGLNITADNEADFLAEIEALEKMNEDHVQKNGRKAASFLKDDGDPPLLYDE
# [27] = biological target: Mu-type opioid receptor (Homo sapiens) (UniProt P35372); assay: my(MOP) (h) Eurofins-Cerep Cellular and Nuclear Receptor Functional Assays; settings: Compound concentration 10.0 uM
# Sequence of Mu-type opioid receptor (Homo sapiens) (P35372 whole entry): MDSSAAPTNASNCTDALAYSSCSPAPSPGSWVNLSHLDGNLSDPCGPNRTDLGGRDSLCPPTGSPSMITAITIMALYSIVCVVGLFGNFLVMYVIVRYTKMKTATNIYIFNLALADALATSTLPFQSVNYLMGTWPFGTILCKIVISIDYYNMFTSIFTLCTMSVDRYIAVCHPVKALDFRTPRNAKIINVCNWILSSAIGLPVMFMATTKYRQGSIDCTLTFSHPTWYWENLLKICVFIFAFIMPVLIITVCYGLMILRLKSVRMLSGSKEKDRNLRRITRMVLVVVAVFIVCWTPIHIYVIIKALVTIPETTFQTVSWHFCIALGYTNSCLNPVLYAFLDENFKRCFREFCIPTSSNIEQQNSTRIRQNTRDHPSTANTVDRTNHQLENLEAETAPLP
# [28] = biological target: Melatonin receptor type 1A (Homo sapiens) (UniProt P48039); assay: Inhibition of Melatonin MT1 at 10 µM in the Eurofins-Panlabs radioligand binding assay (Eurofins_assay_251600); set-up: ligand concentration 0.05 nM; settings: Compound concentration 10.0 uM
# [29] = biological target: Mu-type opioid receptor (Homo sapiens) (UniProt P35372); assay: mu (MOP) (h) Eurofins-Cerep Cellular and Nuclear Receptor Functional Assays; settings: Compound concentration 10.0 uM
structure (smiles),measurement,setting,value
O=C(N1CCS(=O)(=O)CC1)N1C[C@H](c2ccc(OC(F)(F)F)cc2)C[C@H](c2nc(C3CC3)no2)C1 [BAY-386],"inhibition at 60 min, 10 µM",hERG (KCNH2),22% (not active)
same,inhibition,[1],-3%
same,residual activity,[2],99%
same,inhibition,[3],0%
same,inhibition,[4],-2%
same,residual activity,[5],100%
same,residual activity,[6],100%
same,residual activity,[7],100%
same,residual activity,[8],100%
same,inhibition,[9],0%
same,residual activity,[10],100%
same,inhibition,[11],-9%
same,inhibition,[12],88%
same,inhibition,[13],0%
same,inhibition,[14],1%
same,inhibition,[15],-4%
same,inhibition,[16],-1%
same,inhibition,[17],-1%
same,inhibition,Rattus norvegicus [18],3%
same,residual activity,[19],73%
same,inhibition,[20],40.3%
same,inhibition,Rattus norvegicus [21],14%
same,IC90,Platelet,680 nM
same,inhibition,[22],1%
same,inhibition,[23],4%
same,inhibition,[24],-4%
same,inhibition,[25],-3%
same,residual activity,[26],85%
same,% Inhibition of Control Agonist Response (Mean n=2),[27],3.7%
same,% of Control Agonist Response (Mean n=2),[27],1%
same,inhibition,[28],14%
Cc1noc([C@H]2C[C@@H](c3ccc(C(F)(F)F)cc3)CN(C(=O)N3CCS(=O)(=O)C3)C2)n1 [BAY-448],residual activity,[2],96%
same,residual activity,[5],100%
same,residual activity,[6],100%
same,residual activity,[7],100%
same,residual activity,[8],100%
same,residual activity,[10],100%
same,residual activity,[19],100%
same,% Inhibition of Control Agonist Response (Mean n=2),[29],-4.8%
same,% of Control Agonist Response (Mean n=2),[29],36%
same,residual activity,[26],100%
